Test results from publication PMC9944328 (Nature Communications, 2023).

Test system: SSTR2 mutants
Test: SSTRs Gi-mediated cAMP inhibition, GloSensor, HEK293, 5 μM forskolin, 15 min room temperature (SSTR2 mutants)
Assay type: cell-based, human
Procedure: The levels of the intracellular 3′, 5′-cyclic AMP (cAMP) were measured by the GloSensor cAMP assay (Promega) as described in the previous studies[28],[41] which has been widely used. The human full-length SSTRs and mutants were cloned into the pcDNA3.1+ vector with a HA signal sequence followed by a Flag tag at the N-terminus. HEK293 cells (ATCC, CRL-1573) were seeded into 6-well microplates at a density of 1.0 × 10^6 cells/well and cultured for 24 h at 37 °C with 5% CO2. Cells were then co-transfected with SSTR wild-type or mutants and GloSensor plasmids. After 24 h of transfection, the cells were dissociated with TrypLE™ Express Enzyme (1X) (Thermo Fisher Scientific) and collected by centrifugation at 500 × g for 5 min. Then the collected cells were suspended in Hank’s balanced salt solution [HBSS (Thermo Fisher Scientific)] supplemented with […] (YEASEN), and then the suspension cells were seeded into 96-well plates with 90 μl/well. After incubating at room temperature for 40 min, 5 μM forskolin and ligands diluted in HBSS were added to each well and the plates were incubated at room temperature for 15 min. […] were measured using the Synergy H1 microplate reader (BioTek) and the data presented are means of at least three independent experiments.

[1] = Suppl. Table 4, SSTR2 D295(7.36)F, n=3
[2] = Suppl. Table 4, SSTR2 F294(7.35)Y, n=3
[3] = Suppl. Table 4, SSTR2 I195(45.52)M, n=3
[4] = Suppl. Tables 4/5, SSTR2 V103(2.64)N, n=3

**Q.** With N#Cc1cccc(-c2ccc3ncc(-c4cc(F)cc(F)c4)c(N4CCC(N)CC4)c3c2)c1O [paltusotine] as the compound, how does the “Span (best-fit value)” value (P220A-2 (run 2)) read?
**A.** 119.1

**Q.** And the “Top (best-fit value)” value (P220A-2 (run 2))?
**A.** 123.6

**Q.** And the “Bottom (best-fit value)” value (P220A-3 (run 3))?
**A.** 2.569

**Q.** And the “LogEC50 (best-fit value)” value (P220A-3 (run 3))?
**A.** -8.511

**Q.** What about the “Span (best-fit value)” value (P220A-3 (run 3)) of the same compound?
**A.** 103.4

**Q.** And the “Top (best-fit value)” value (P220A-3 (run 3))?
**A.** 106

**Q.** And the “Fold of WT” value (Suppl. Table 4, SSTR2 D295(7.36)F)?
**A.** 0.67

**Q.** What about the EC50 [1] of the same compound?
**A.** 1.39 ± 1.95 nM

**Q.** What about the Emax [1] of the same compound?
**A.** 75.57±7.43 %WT SSTR2

**Q.** And the “Fold of WT” value (Suppl. Table 4, SSTR2 F294(7.35)Y)?
**A.** 0.48

**Q.** What about the EC50 [2] of the same compound?
**A.** 0.99 ± 1.3 nM

**Q.** And the Emax [2]?
**A.** 103.10±3.86 %WT SSTR2

**Q.** What about the “Fold of WT” value (Suppl. Table 4, SSTR2 I195(45.52)M) of the same compound?
**A.** 1.47

**Q.** And the EC50 [3]?
**A.** 3.05 ± 1.57 nM

**Q.** And the Emax [3]?
**A.** 89.43±6.05 %WT SSTR2

**Q.** What about the “Fold of WT” value (Suppl. Table 4, SSTR2 Y205(5.35)R) of the same compound?
**A.** 0.16

**Q.** And the EC50 (Suppl. Table 4, SSTR2 Y205(5.35)R, n=3)?
**A.** 0.34 nM

**Q.** And the “Fold of WT” value (Suppl. Tables 4/5, SSTR2 T194(45.51)H)?
**A.** 72.45

**Q.** And the Emax (Suppl. Tables 4/5, SSTR2 T194(45.51)H, n=3)?
**A.** 103.80±12.72 %WT SSTR2

**Q.** And the “Fold of WT” value (Suppl. Tables 4/5, SSTR2 V103(2.64)N)?
**A.** 5.75

**Q.** What about the EC50 [4] of the same compound?
**A.** 12 ± 1.33 nM

**Q.** What about the Emax [4] of the same compound?
**A.** 99.52±4.73 %WT SSTR2

**Q.** And the “Receptor activation of mutant” value (T194(45.51)H in SSTR2)?
**A.** significantly reduced receptor activation

**Q.** And the EC50 (T194A, run 1, best-fit)?
**A.** 54.2 nM

**Q.** What about the LogEC50 (T194A, run 1, best-fit) of the same compound?
**A.** -7.266

**Q.** What about the EC50 (T194A, run 2, best-fit) of the same compound?
**A.** 52.7 nM

**Q.** What about the LogEC50 (T194A, run 2, best-fit) of the same compound?
**A.** -7.278

**Q.** And the EC50 (T194A, run 3, best-fit)?
**A.** 125 nM

**Q.** What about the LogEC50 (T194A, run 3, best-fit) of the same compound?
**A.** -6.904

**Q.** What about the “Bottom (best-fit)” value (T194H, run 1) of the same compound?
**A.** 6.584

**Q.** And the EC50 (T194H, run 1)?
**A.** 123 nM

**Q.** What about the LogEC50 (T194H, run 1) of the same compound?
**A.** -6.909

**Q.** What about the “Span (best-fit)” value (T194H, run 1) of the same compound?
**A.** 95.8

**Q.** And the “Top (best-fit)” value (T194H, run 1)?
**A.** 102.4

**Q.** And the “Bottom (best-fit)” value (T194H, run 2)?
**A.** -1.67

**Q.** What about the EC50 (T194H, run 2) of the same compound?
**A.** 151 nM

**Q.** What about the LogEC50 (T194H, run 2) of the same compound?
**A.** -6.822

**Q.** What about the “Span (best-fit)” value (T194H, run 2) of the same compound?
**A.** 105.4

**Q.** What about the “Top (best-fit)” value (T194H, run 2) of the same compound?
**A.** 103.8

**Q.** What about the “Bottom (best-fit)” value (T194H, run 3) of the same compound?
**A.** -5.336

**Q.** And the EC50 (T194H, run 3)?
**A.** 125 nM

**Q.** And the LogEC50 (T194H, run 3)?
**A.** -6.902

**Q.** What about the “Span (best-fit)” value (T194H, run 3) of the same compound?
**A.** 128.8

**Q.** What about the “Top (best-fit)” value (T194H, run 3) of the same compound?
**A.** 123.4

**Q.** And the “Impact on Gi signaling” value (V103(2.64)A)?
**A.** less impact on Gi signaling

**Q.** And the “Receptor activation of mutant” value (V103(2.64)N in SSTR2)?
**A.** reduced receptor activation induced by paltusotine

**Q.** What about the “Bottom (best-fit)” value (V103N, run 1) of the same compound?
**A.** 8.462

**Q.** What about the EC50 (V103N, run 1) of the same compound?
**A.** 11.7 nM

**Q.** And the LogEC50 (V103N, run 1)?
**A.** -7.932

**Q.** What about the “Span (best-fit)” value (V103N, run 1) of the same compound?
**A.** 90.96

**Q.** What about the “Top (best-fit)” value (V103N, run 1) of the same compound?
**A.** 99.42

**Q.** And the “Bottom (best-fit)” value (V103N, run 2)?
**A.** -2.517

**Q.** And the EC50 (V103N, run 2)?
**A.** 36.2 nM

**Q.** And the LogEC50 (V103N, run 2)?
**A.** -7.441

**Q.** And the “Span (best-fit)” value (V103N, run 2)?
**A.** 109.6

**Q.** What about the “Top (best-fit)” value (V103N, run 2) of the same compound?
**A.** 107.1

**Q.** What about the “Bottom (best-fit)” value (V103N, run 3) of the same compound?
**A.** -1.625

**Q.** What about the EC50 (V103N, run 3) of the same compound?
**A.** 11.7 nM

**Q.** What about the LogEC50 (V103N, run 3) of the same compound?
**A.** -7.93

**Q.** And the “Span (best-fit)” value (V103N, run 3)?
**A.** 109.5

**Q.** And the “Top (best-fit)” value (V103N, run 3)?
**A.** 107.8

**Q.** What about the “Bottom (best-fit value)” value (W269A-1 (run 1)) of the same compound?
**A.** -6.112

**Q.** What about the “LogEC50 (best-fit value)” value (W269A-1 (run 1)) of the same compound?
**A.** -9.221

**Q.** What about the “Span (best-fit value)” value (W269A-1 (run 1)) of the same compound?
**A.** 105.6

**Q.** And the “Top (best-fit value)” value (W269A-1 (run 1))?
**A.** 99.48

**Q.** And the “Bottom (best-fit value)” value (W269A-2 (run 2))?
**A.** -8.179

**Q.** What about the “LogEC50 (best-fit value)” value (W269A-2 (run 2)) of the same compound?
**A.** -9.298

**Q.** And the “Span (best-fit value)” value (W269A-2 (run 2))?
**A.** 111.2

**Q.** And the “Top (best-fit value)” value (W269A-2 (run 2))?
**A.** 103

**Q.** And the “Bottom (best-fit value)” value (W269A-3 (run 3))?
**A.** -4.689

**Q.** What about the “LogEC50 (best-fit value)” value (W269A-3 (run 3)) of the same compound?
**A.** -9.219

**Q.** And the “Span (best-fit value)” value (W269A-3 (run 3))?
**A.** 124.8

**Q.** And the “Top (best-fit value)” value (W269A-3 (run 3))?
**A.** 120.1

**Q.** And the EC50 (Y50A, run 1, best-fit)?
**A.** 3.61 nM

**Q.** And the LogEC50 (Y50A, run 1, best-fit)?
**A.** -8.443

**Q.** And the EC50 (Y50A, run 2, best-fit)?
**A.** 3.74 nM

**Q.** What about the LogEC50 (Y50A, run 2, best-fit) of the same compound?
**A.** -8.427

**Q.** What about the EC50 (Y50A, run 3, best-fit) of the same compound?
**A.** 3.4 nM

**Q.** And the LogEC50 (Y50A, run 3, best-fit)?
**A.** -8.469

**Q.** And the “Bottom (best-fit value)” value (Y205A-1 (run 1))?
**A.** 11.16

**Q.** And the “LogEC50 (best-fit value)” value (Y205A-1 (run 1))?
**A.** -9.464

**Q.** What about the “Span (best-fit value)” value (Y205A-1 (run 1)) of the same compound?
**A.** 82.7

**Q.** What about the “Top (best-fit value)” value (Y205A-1 (run 1)) of the same compound?
**A.** 93.87

**Q.** What about the “Bottom (best-fit value)” value (Y205A-2 (run 2)) of the same compound?
**A.** -6.723

**Q.** What about the “LogEC50 (best-fit value)” value (Y205A-2 (run 2)) of the same compound?
**A.** -9.038

**Q.** What about the “Span (best-fit value)” value (Y205A-2 (run 2)) of the same compound?
**A.** 105.5

**Q.** And the “Top (best-fit value)” value (Y205A-2 (run 2))?
**A.** 98.77

**Q.** What about the “Bottom (best-fit value)” value (Y205A-3 (run 3)) of the same compound?
**A.** 0.8743

**Q.** What about the “LogEC50 (best-fit value)” value (Y205A-3 (run 3)) of the same compound?
**A.** -9.745

**Q.** And the “Span (best-fit value)” value (Y205A-3 (run 3))?
**A.** 102.6

**Q.** And the “Top (best-fit value)” value (Y205A-3 (run 3))?
**A.** 103.5

**Q.** What about the LogEC50 (Y205R, run 1) of the same compound?
**A.** -9.464

**Q.** What about the “Span (best-fit)” value (Y205R, run 1) of the same compound?
**A.** 104.7

**Q.** And the “Top (best-fit)” value (Y205R, run 1)?
**A.** 106.2

**Q.** And the LogEC50 (Y205R, run 2)?
**A.** -9.626

**Q.** And the “Span (best-fit)” value (Y205R, run 2)?
**A.** 101.5

**Q.** What about the “Top (best-fit)” value (Y205R, run 2) of the same compound?
**A.** 105.3

**Q.** And the LogEC50 (Y205R, run 3)?
**A.** -8.061

**Q.** And the “Span (best-fit)” value (Y205R, run 3)?
**A.** 97.31

**Q.** What about the “Top (best-fit)” value (Y205R, run 3) of the same compound?
**A.** 99.13

**Q.** And the “Bottom (best-fit value), cAMP inhibition” value (Y302A-1 (run 1))?
**A.** 5.692
